Measured values from patent US11638718B2, “Treatment of alphavirus-induced inflammation” (priority 2016, dated 2023).
Marks after values point to notes of the source that are not given here.

What was measured:
[1] = tested on: alphavirus; details: earlier studies by the group (refs 30, 55-57); cited from earlier work
[2] = tested on: Ross River virus (RRV); test: RRV-induced disease in mice: clinical score and weight; assay type: in vivo, C57BL/6 mice; details: RRV-infected mice, PPS 3 mg/kg i.p. daily vs vehicle
[3] = tested on: Ross River virus (RRV); test: RRV viral load: plaque assay on Vero cells and nsP3 qPCR; assay type: in vivo, C57BL/6 mice
[4] = tested on: chikungunya virus (CHIKV); test: CHIKV-induced footpad swelling and joint histology in mice; assay type: in vivo, C57BL/6 mice
[5] = tested on: chikungunya virus (CHIKV); test: CHIKV viral load: plaque assay on Vero cells and E2 qPCR; assay type: in vivo, C57BL/6 mice; details: CHIKV-infected, days 1, 3 and 7 p.i.
[6] = humans, periods greater than 12 months (ref 53); cited from earlier work
[7] = tested on: chikungunya virus (CHIKV); test: Serum soluble factors by multiplex, CHIKV-infected mice
[8] = tested on: Ross River virus (RRV); test: Serum soluble factors by multiplex bead array, RRV-infected mice
[9] = tested on: Ross River virus (RRV); test: H&E histology of quadriceps muscle and joint inflammation, RRV-infected mice
[10] = tested on: cartilage matrix genes in joint tissues of RRV-infected mice; test: Real-time PCR of cartilage matrix genes in joint tissues, acute RRV infection
[11] = tested on: Ross River virus (RRV); test: Detection of leukocyte infiltrates in quadriceps by flow cytometry, RRV-infected mice
[12] = tested on: Ross River virus (RRV); test: Long-term oral PPS treatment of RRV-infected mice: clinical signs, joint gene expression
[13] = tested on: Ross River virus (RRV); test: Masson's trichrome and Safranin O/Fast Green histology of muscle, cartilage and epiphyseal plate, RRV-infected mice; details: day 10 p.i.
[14] = peak disease (day 10 p.i.), not at the early stages
[15] = RRV + PPS, long-term oral treatment, joint tissue
[16] = long-term oral PPS, RRV-infected

Enbrel
effect on alphavirus disease [1]: suppress the antiviral response and enhance viral replication thereby worsen disease

pentosan polysulfate [PPS]
decrease in clinical disease score [2]: 65%
disease-associated weight loss [2]: protection from disease-associated weight loss
viral titres in serum ([3]; PPS-treated vs mock-treated, all days tested, plaque assay): comparable
RRV titres in quadriceps muscles ([3]; PPS-treated vs mock-treated, plaque assay): comparable
RRV titres in ankle tissues ([3]; day 3 p.i., plaque assay): slight reduction
RRV titres in ankle tissues ([3]; day 7 p.i., plaque assay): comparable
RRV RNA in joint tissue (qPCR), difference to mock-treated ([3]; day 10 p.i.): not statistically significant
RRV titres in ankle tissues ([3]; day 10 p.i., plaque assay, vs mock-treated): elevated
joint (footpad) swelling ([4]; CHIKV-infected mice, PPS 3 mg/kg i.p. daily): decreased the level of joint swelling
inflammatory cells infiltrating into the joint (H&E) ([4]; CHIKV-infected, peak swelling 3 days p.i.): reduction in inflammatory cells infiltrating into the joint
kinetics of virus infection (plaque assay) [5]: did not affect the kinetics of virus infection
tolerability of long-term clinical use [6]: extremely well tolerated
serum IL-10 ([7]; early): early surge
serum CCL-2 ([7]; peak disease (day 3 p.i.)): reduced the levels
serum G-CSF ([7]; peak disease (day 3 p.i.)): reduced the levels
serum IL-6 ([7]; peak disease (day 3 p.i.)): reduced the levels
serum IL-9 ([7]; peak disease (day 3 p.i.)): reduced the levels
serum IL-10 ([8]; day 1 p.i.): significantly elevated
serum chemo-attractants factors ([8]; day 1 p.i.): increased levels
serum IL-10 ([8]; day 3 p.i.): significantly elevated
serum CCL-2 ([8]; peak disease (day 10 p.i.)): significantly reduced
serum IL-1α ([8]; peak disease (day 10 p.i.)): significantly reduced
serum IL-2 ([8]; peak disease (day 10 p.i.)): significantly reduced
serum IL-6 ([8]; peak disease (day 10 p.i.)): significantly reduced
serum MIP-1α ([8]; peak disease (day 10 p.i.)): significantly reduced
infiltrating cells in muscle and joint tissues (H&E) ([9]; RRV-infected, PPS 3 mg/kg i.p. daily, day 7 and 10 p.i.): markedly reduced numbers of infiltrating cells
inflammation in quadriceps muscle or ankle joint ([9]; mock-infected PPS-treated mice): No inflammation was observed
BMP-1 expression ([10]; RRV-infected, PPS 3 mg/kg i.p.): unaffected
TGF-β1 expression ([10]; RRV-infected, PPS 3 mg/kg i.p.): unaffected
aggrecan expression increase caused by RRV ([10]; RRV-infected, PPS 3 mg/kg i.p.): largely reduced
collagen I expression increase caused by RRV ([10]; RRV-infected, PPS 3 mg/kg i.p.): largely reduced
collagen II expression increase caused by RRV ([10]; RRV-infected, PPS 3 mg/kg i.p.): largely reduced
metalloproteinases expression ([10]; RRV-infected, PPS 3 mg/kg i.p.): unaffected
early expression of aggrecan ([10]; early time points p.i.): significantly reduced
early expression of collagen II ([10]; early time points p.i.): significantly reduced
ADAMTS-5 expression in joint tissue [10, 14]: significantly reduced
TIMP-3 expression in joint tissue [10, 14]: significantly reduced
NK cell population in quadriceps ([11]; day 7 p.i.): reductions
T cell population in quadriceps ([11]; day 7 p.i.): reductions
monocyte population in quadriceps ([11]; day 7 p.i.): reductions
numbers of CD45+ infiltrating leukocytes in quadriceps ([11]; day 7 p.i.): uniformly reduced
NK cell population in quadriceps ([11]; day 10 p.i.): decrease
T cell population in quadriceps ([11]; day 10 p.i.): decrease
percentage of NK cells in quadriceps (NK cell to total cell ratio) ([11]; day 10 p.i., data not shown): reduction in the overall percentage of NK cells
Fold Change ADAMTS-4 [12, 15]: 0.1689**
Fold Change ADAMTS-5 [12, 15]: 0.8305
Fold Change Aggrecan [12, 15]: 0.6105***
Fold Change BMP-1 [12, 15]: 1.4697
Fold Change Collagen I [12, 15]: 0.4014
Fold Change Collagen II [12, 15]: 0.1719
Fold Change MMP-3 [12, 15]: 2.5028
Fold Change MMP-9 [12, 15]: 0.8604
Fold Change TGF-β1 [12, 15]: 0.4010
Fold Change TIMP-3 [12, 15]: 0.6328
ADAMTS-4 expression [12, 16]: reduced
expression of aggrecan [12, 16]: back to base-line levels
joint damage [12, 16]: less joint damage
adverse clinical signs ([12]; oral PPS in drinking water 100 mg/L (25 mg/kg/day), 3-month duration): no adverse clinical signs
chondrocyte morphology [13]: maintaining chondrocyte morphology
epiphyseal plate thickness [13]: prevented RRV-induced thinning of the epiphyseal plate
loss of articular cartilage [13]: preventing the loss of articular cartilage
proteoglycan matrix of articular cartilage (Safranin O/Fast Green, knee joint) [13]: protected the proteoglycan matrix of the articular cartilage
skeletal muscle morphology (tibialis anterior, Masson's trichrome) [13]: protected the morphology of striations within the skeletal muscle
